Laboratory results published in publication PMC6179045, “Design, synthesis and biological evaluation of tricyclic pyrazolo[1,5-c][1,3]benzoxazin-5(5H)-one scaffolds as selective BuChE inhibitors” (Journal of Enzyme Inhibition and Medicinal Chemistry, 2018).
Like-named read-outs stand apart in the source and are kept apart here.

How the values were obtained:
[1] = molecular target: T1, AChE from electric eel (EeAChE) (Electrophorus electricus, UniProt O42275); assay: AChE activity assay (modified Ellman's method); format: biochemical; settings: for IC50: mean ± SEM, n = 3
T1 construct: AChE from electric eel (C3389-500UN; Sigma); purchased Sigma C3389-500UN
T1 sequence (O42275 24-633): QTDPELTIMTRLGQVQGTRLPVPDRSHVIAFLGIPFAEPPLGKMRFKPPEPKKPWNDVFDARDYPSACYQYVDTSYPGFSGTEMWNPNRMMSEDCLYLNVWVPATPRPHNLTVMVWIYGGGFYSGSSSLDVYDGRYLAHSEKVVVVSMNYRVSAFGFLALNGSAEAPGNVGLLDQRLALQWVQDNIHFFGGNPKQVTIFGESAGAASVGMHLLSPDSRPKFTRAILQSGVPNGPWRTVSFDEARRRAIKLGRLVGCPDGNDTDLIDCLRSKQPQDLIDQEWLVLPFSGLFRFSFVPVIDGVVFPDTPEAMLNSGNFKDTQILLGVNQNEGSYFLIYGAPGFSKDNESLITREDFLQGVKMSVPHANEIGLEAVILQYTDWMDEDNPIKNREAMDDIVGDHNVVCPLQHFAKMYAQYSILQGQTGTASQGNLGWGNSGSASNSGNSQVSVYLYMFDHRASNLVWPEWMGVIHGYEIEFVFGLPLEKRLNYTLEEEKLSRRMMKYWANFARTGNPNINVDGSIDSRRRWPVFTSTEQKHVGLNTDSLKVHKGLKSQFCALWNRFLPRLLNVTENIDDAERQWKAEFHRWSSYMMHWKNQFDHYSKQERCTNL
Protocol: (§1) Enzymatic activity assays were performed on AChE from electric eel (C3389-500UN; Sigma) and BuChE from equine serum (C4290-1KU; Sigma), according to Ellman’s method with light modification. The experiment was performed in 48-well plates in a final volume of 500 µl. Each well contained 0.036 U/ml of EeAChE or eqBuChE, and 0.1 M pH = 8 phosphate buffer. They were incubated for 20 min at different concentrations of test compound at 37 °C. […] The DTNB produced the yellow anion 5-thio-2-nitrobenzoic acid along with the enzymatic degradation of acetylthiocholine or butyrylthiocholine. The absorbance of each assay was measured at 410 nm after 20 min in a Biotek Synergy HTX Multi-Mode reader. The IC50 values were calculated graphically from inhibition curves (log inhibitor concentration vs percent of inhibition). A control experiment was performed under the same conditions without inhibitor and the blank contained buffer, DMSO, DTNB and substrate.

[2] = molecular target: T2, BuChE from equine serum (eqBuChE) (Equus caballus, UniProt P81908); assay: BuChE activity assay (modified Ellman's method); format: biochemical, equine (horse); settings: for IC50: mean ± SEM, n = 3; for inhibition at 20 µM / inhibition % at 20 µM BuChE: 20 µM compound
T2 construct: BuChE from equine serum (C4290-1KU; Sigma); purchased Sigma C4290-1KU; host or cells: equine serum
T2 sequence (P81908 whole entry): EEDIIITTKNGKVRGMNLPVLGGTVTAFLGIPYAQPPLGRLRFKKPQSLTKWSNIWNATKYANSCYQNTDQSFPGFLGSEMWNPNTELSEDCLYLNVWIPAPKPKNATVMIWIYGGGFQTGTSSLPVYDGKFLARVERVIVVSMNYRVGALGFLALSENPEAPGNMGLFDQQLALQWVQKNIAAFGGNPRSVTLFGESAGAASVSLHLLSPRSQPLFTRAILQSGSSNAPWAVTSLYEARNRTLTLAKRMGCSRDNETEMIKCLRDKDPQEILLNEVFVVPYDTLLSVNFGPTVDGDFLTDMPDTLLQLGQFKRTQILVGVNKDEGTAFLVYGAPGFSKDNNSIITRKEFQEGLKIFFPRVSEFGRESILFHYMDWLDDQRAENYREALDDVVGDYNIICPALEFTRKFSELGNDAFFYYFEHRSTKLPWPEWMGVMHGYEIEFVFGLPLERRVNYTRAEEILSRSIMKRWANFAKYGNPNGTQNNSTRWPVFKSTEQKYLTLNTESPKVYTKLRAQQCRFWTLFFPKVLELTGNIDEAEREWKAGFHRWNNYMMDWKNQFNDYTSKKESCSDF
Protocol: as §1

[3] = Log P assessment (shake flask method, octanol/PBS); format: physicochemical; settings: octanol/PBS pH 7.4, shake flask, 37 °C
Protocol: Log P, defined as the logarithm of octanol–water partition coefficient, is an important parameter to evaluate lipophilicity of compounds[45]. It can be calculated by determining the concentration of compound in octanol phase and water phase until the partition equilibrium was completed. In this work, log P of title compounds was measured by the shake flask method with slight modification. PBS (pH = 7.4) was used as the water. Both the octanol and the aqueous phase were saturated with each other before use. The assay mixture containing test compounds was shaken at 37 °C. After 24 h, the mixture was centrifuged at 4,000 rpm for 30 min, followed by the measurement with UV spectrophotometer. Experiments were conducted in triplicate and log p values were calculated.

[4] = test system: differentiated PC12 cells; assay: Neuroprotective effect against H2O2-induced damage in differentiated PC12 cells; format: cell-based; settings: Rattus norvegicus, PC-12, 25 µM compound 3 h before H2O2 (300 µM), 24 h, MTT, p < .05 vs. H2O2 alone, read-out: cell viability (neuroprotective activity)
Protocol: The differentiated PC12 cells and oxidative agent H2O2 were used as in vitro model to assess neuronal differentiation and neurobiochemical and neurobiological properties[39]^,[44]. Differentiated PC12 cells were incubated with different concentrations of compounds 6a and 6g for 3 h before treatment with H2O2 (300 µM). Cell viability was measured after 24 h using MTT method. Briefly, 20 µL of 0.5 mg/ml MTT reagent was added into the cells and incubated for 4 h. After 4 h, cell culture was removed and then 150 µl DMSO was added to dissolve the formazan. OD570 value was measured at 570 nm on the Biotek Synergy HTX Multi-Mode reader. Results were adjusted by OD570 value in the blank.
. The differentiated PC12 cells were pretreated with three concentrations (10, 25 and 50 µM) for 3 h, before treatment with H2O2 (300 µM), and cell viability was measured after 24 h using MTT method. […]. Neuroprotective activity of compounds 6a and 6g […] was evaluated by subjecting PC12 cells to H2O2-induced damage. […]

eqBuChE = molecular target: T3, eqBuChE (Equus caballus, UniProt P81908); assay: Kinetic study of eqBuChE inhibition (Lineweaver-Burk plots); format: biochemical, equine (horse)
T3 construct: BuChE from equine serum (C4290-1KU; Sigma); purchased Sigma C4290-1KU; host or cells: equine serum
T3 sequence (P81908 whole entry): as above
Protocol: . The kinetic type of enzyme inhibition was obtained through the modified Ellman’s method and Lineweaver–Burk secondary plots. Apparent inhibition constants and kinetic parameters were calculated within the “Enzyme kinetics” module of Prism 5.
The kinetic studies were carried out at three fixed inhibitor concentrations (5, 10 and 20 µM).

[5] = Cytotoxicity MTT assay in PC12 cells; format: cell-based; settings: rat, 1-50 µM, read-out: relative cell viability (cytotoxicity)
Protocol: PC12 cells were used to evaluate cell cytotoxicity by methyl thiazolyl tetrazolium (MTT) assay. PC12 cells were cultured in DMEM containing 10% fetal bovine serum, 100 µg/ml streptomycin and 100 units/ml penicillin at 37 °C in a 5% CO2 humidified atmosphere, and inoculated at 1 × 10^4 cells per well in 96-well plate. After cultured for 24 h, the cells were treated with different concentration of compounds in DMEM for 24 h. Then 20 µl of 0.5 mg/ml MTT reagent was added into the cells and incubated for 4 h. After 4 h, cell culture was removed and then 150 µl DMSO was added to dissolve the formazan. The optical density was measured at 570 nm (OD570). Cell viability was calculated from three independent experiments. OD570 of formazan in blank group was set as 100% of viability.
Blank: cultured with fresh medium only.

[6] = AChE from electric eel, 20 µM compound, read-out: inhibition at 20 µM AChE
[7] = BuChE from horse serum, read-out: inhibition % at 20 µM BuChE
[8] = AChE from electric eel, 20 µM compound
[9] = AChE from electric eel, 20 µM compound, read-out: inhibition % at 20 µM AChE
[10] = BuChE from horse serum, read-out: inhibition at 20 µM BuChE

## O=C1Oc2ccccc2C2CC(c3ccccc3)=NN12 (stereo not shown) [Compound 3a, 2-Phenyl-1,10b-dihydro-5H-pyrazolo[1,5-c][1,3]benzoxazin-5-one]
[1]; [6]
  inhibition at 20 µM: < 0%
[2]; BuChE from horse serum
  IC50: 9.47 ± 0.23 µM

## S=C1Oc2ccccc2C2CC(c3ccccc3)=NN12 (stereo not shown) [Compound 3b, 2-Phenyl-1,10b-dihydro-5H-pyrazolo[1,5-c][1,3]benzoxazin-5-thione]
[1]; [6]
  inhibition at 20 µM: < 0%
[2]; [7]
  inhibition at 20 µM: 9 ± 3%

## O=C1Oc2ccccc2C2CC(c3ccc(F)cc3)=NN12 (stereo not shown) [Compound 3c, 2-(4-Fluoro)phenyl-1,10b-dihydro-5H-pyrazolo[1,5-c][1,3]benzoxazin-5-one]
[1]; [8]
  inhibition % at 20 µM AChE: 15 ± 3%
[2]; BuChE from horse serum
  inhibition % at 20 µM BuChE: 15 ± 2%

## O=C1Oc2ccc(Cl)cc2C2CC(c3ccc(Cl)cc3)=NN12 (stereo not shown) [Compound 3d, 9-Chloro-2-(4-chloro)phenyl-1,10b-dihydro-5H-pyrazolo[1,5-c][1,3]benzoxazin-5-one]
[1]; [8]
  inhibition % at 20 µM AChE: 39 ± 1%
[2]; BuChE from horse serum
  inhibition % at 20 µM BuChE: 41 ± 6%

## Cc1ccc(C2=NN3C(=O)Oc4ccc(Cl)cc4C3C2)cc1 (stereo not shown) [Compound 3e, 9-Chloro-2-(4-methyl)phenyl-1,10b-dihydro-5H-pyrazolo[1,5-c][1,3]benzoxazin-5-one]
[1]; [8]
  inhibition % at 20 µM AChE: 32 ± 2%
[2]; BuChE from horse serum
  inhibition % at 20 µM BuChE: 32 ± 5%

## Cc1ccc(C2=NN3C(=O)Oc4ccccc4C3C2)cc1 (stereo not shown) [Compound 3f, 2–(4-Methyl)phenyl-1,10b-dihydro-5H-pyrazolo[1,5-c][1,3]benzoxazin-5-one]
[1]; [8]
  inhibition % at 20 µM AChE: 48 ± 3%
[2]; BuChE from horse serum
  inhibition % at 20 µM BuChE: 32 ± 2%

## CC1=NN2C(=O)Oc3c(Cl)cc(Cl)cc3C2C1 (stereo not shown) [Compound 6a, 7,9-Dichloro-2-methyl-1,10b-dihydro-5H-pyrazolo[1,5-c][1,3]benzoxazin-5-one]
[1]; [9]
  inhibition at 20 µM: 39 ± 3%
[3]
  logP at 24 h: 1.5
[4]
  viability at 25 µM: > 70%
eqBuChE; Lineweaver-Burk plots
  type of BuChE inhibition: mixed-type inhibition
eqBuChE; Lineweaver-Burk secondary plots, inhibitor 5, 10 and 20 µM, read-out: dissociation constant Ki against BuChE
  Ki: 7.46 µM
[2]; BuChE from horse serum
  IC50: 1.06 ± 0.11 µM
[5]
  viability at 24 h: > 90%

## CC1=NN2C(=S)Oc3c(Cl)cc(Cl)cc3C2C1 (stereo not shown) [Compound 6b, 7,9-Dichloro-2-methyl-1,10b-dihydro-5H-pyrazolo[1,5-c][1,3]benzoxazin-5-thione]
[1]; [9]
  inhibition at 20 µM: 25 ± 1%
[2]; [10]
  inhibition at 20 µM: < 0%

## CC1=NN2C(=O)Oc3c(Br)cc(Br)cc3C2C1 (stereo not shown) [Compound 6c, 7,9-Dibromo-2-methyl-1,10b-dihydro-5H-pyrazolo[1,5-c][1,3]benzoxazin-5-one]
[1]; AChE from electric eel
  IC50: 10.7 ± 0.64 µM
[3]
  logP at 24 h: 1.48
[2]; BuChE from horse serum
  IC50: 1.63 ± 0.42 µM

## CC1=NN2C(=S)Oc3c(Br)cc(Br)cc3C2C1 (stereo not shown) [Compound 6d, 7,9-Dibromo-2-methyl-1,10b-dihydro-5H-pyrazolo[1,5-c][1,3]benzoxazin-5-thione]
[1]; [9]
  inhibition at 20 µM: 26 ± 3%
[2]; [10]
  inhibition at 20 µM: < 0%

## CC1=NN2C(=O)Oc3ccc(Cl)cc3C2C1 (stereo not shown) [Compound 6e, 9-Chloro-2-methyl-1,10b-dihydro-5H-pyrazolo[1,5-c][1,3]benzoxazin-5-one]
[1]; [9]
  inhibition at 20 µM: 16 ± 1%
[2]; BuChE from horse serum
  IC50: 6.29 ± 0.65 µM

## CC1=NN2C(=S)Oc3ccc(Cl)cc3C2C1 (stereo not shown) [Compound 6f, 9-Chloro-2-methyl-1,10b-dihydro-5H-pyrazolo[1,5-c][1,3]benzoxazin-5-thione]
[1]; [9]
  inhibition at 20 µM: 18 ± 2%
[2]; [10]
  inhibition at 20 µM: < 0%

## CC1=NN2C(=S)Oc3ccc(Br)cc3C2C1 (stereo not shown) [Compound 6h, 9-Bromo-2-methyl-1,10b-dihydro-5H-pyrazolo[1,5-c][1,3]benzoxazin-5-thione]
[1]; [9]
  inhibition at 20 µM: 27 ± 2%
[2]; [10]
  inhibition at 20 µM: < 0%

## CC1=NN2C(=O)Oc3c(Br)cc(Cl)cc3C2C1 (stereo not shown) [Compound 6i, 7-Bromo-9-chloro-2-methyl-1,10b-dihydro-5H-pyrazolo[1,5-c][1,3]benzoxazin-5-one]
[1]; AChE from electric eel
  IC50: 13 ± 0.32 µM
[2]; BuChE from horse serum
  IC50: 2.44 ± 0.44 µM

## CC1=NN2C(=S)Oc3c(Br)cc(Cl)cc3C2C1 (stereo not shown) [Compound 6j, 7-Bromo-9-chloro-2-methyl-1,10b-dihydro-5H-pyrazolo[1,5-c][1,3]benzoxazin-5-thione]
[1]; [9]
  inhibition at 20 µM: 14 ± 2%
[2]; [10]
  inhibition at 20 µM: < 0%

## COc1cccc2c1OC(=O)N1N=C(C)CC21 (stereo not shown) [Compound 6k, 2-Methyl-7-methoxy-1,10b-dihydro-5H-pyrazolo[1,5-c][1,3]benzoxazin-5-one]
[1]; [9]
  inhibition at 20 µM: 35 ± 3%
[2]; BuChE from horse serum
  inhibition % at 20 µM BuChE: 14 ± 3%
[2]; [7]
  inhibition at 20 µM: < 20%

## COc1cccc2c1OC(=S)N1N=C(C)CC21 (stereo not shown) [Compound 6l, 2-Methyl-7-methoxy-1,10b-dihydro-5H-pyrazolo[1,5-c][1,3]benzoxazin-5-thione]
[1]; [9]
  inhibition at 20 µM: 30 ± 2%
[2]; [7]
  inhibition at 20 µM: 2 ± 2%

## CC1=NN2C(=O)Oc3ccc(C)cc3C2C1 (stereo not shown) [Compound 6m, 2,9-Dimethyl-1,10b-dihydro-5H-pyrazolo[1,5-c][1,3]benzoxazin-5-one]
[1]; [6]
  inhibition at 20 µM: < 0%
[2]; BuChE from horse serum
  inhibition % at 20 µM BuChE: 14 ± 1%
[2]; [7]
  inhibition at 20 µM: < 20%

## CC1=NN2C(=S)Oc3ccc(C)cc3C2C1 (stereo not shown) [Compound 6n, 2,9-Dimethyl-1,10b-dihydro-5H-pyrazolo[1,5-c][1,3]benzoxazin-5-thione]
[1]; [9]
  inhibition at 20 µM: 15 ± 2%
[2]; [10]
  inhibition at 20 µM: < 0%

## CC1=NN2C(=O)Oc3ccccc3C2C1 (stereo not shown) [Compound 6o, 2-Methyl-1,10b-dihydro-5H-pyrazolo[1,5-c][1,3]benzoxazin-5-one]
[1]; read-out: inhibition at 20 µM AChE
  inhibition at 20 µM: < 0%
[2]; read-out: inhibition % at 20 µM BuChE, BuChE from horse serum
  inhibition at 20 µM: 50.1 ± 4.3%

## CC1=NN2C(=S)Oc3ccccc3C2C1 (stereo not shown) [Compound 6p, 2-Methyl-1,10b-dihydro-5H-pyrazolo[1,5-c][1,3]benzoxazin-5-thione]
[1]; [6]
  inhibition at 20 µM: < 0%
[2]; [10]
  inhibition at 20 µM: < 0%

## CC1=NN2C(=O)Oc3c(Br)cccc3C2C1 (stereo not shown) [Compound 6q, 7-Bromo-2-methyl-1,10b-dihydro-5H-pyrazolo[1,5-c][1,3]benzoxazin-5-one]
[1]; [6]
  inhibition at 20 µM: < 0%
[2]; BuChE from horse serum
  IC50: 3.22 ± 1.06 µM
